This is an account of results in patent US12054562B2, “Cell-permeable inhibitory agent and methods of use thereof in treatment of cognitive and mood disorders” (priority 2015, dated 2024).

Test [1] relates to α5GABAA receptor cell-surface expression. Put plainly: Receptor cell-surface ELISA assay in cultured hippocampal neurons. Format: cell-based, mouse. The conditions noted are these: peptide 2 μM, 24 hrs, astrocyte-conditioned medium (etomidate 1 μM, 1 hr). Here is the method: This experimental cell culture model was used to test the effects of the inhibitory peptide on an overexpression of α5GABAA receptors on the surface of neurons. The medium from astrocytes that were treated with etomidate (1 μM, 1 hr) (conditioned medium) was collected, and the medium bathing cultured hippocampal neurons was exchanged with the astrocyte-conditioned medium. The cells were incubated at 37° C., 5% CO2 with the peptide or scramble peptide (2 μM). After 24 hrs incubation, the cells were used for receptor cell-surface ELISA assay. The cells were fixed in 4% paraformaldehyde for 20 min in the presence (permeabilized) or absence (non-permeabilized) of 1% Triton-X100. The cells, after 3 times wash with cold PBS and blocked with 5% bovine album solution, were incubated with a α5 antibody (Santa Cruz Biotech Inc.) at 4° C. overnight. The next day the cells were thoroughly washed with PBS and incubated with the horseradish peroxidase (HRP)-conjugated secondary antibody for 2 hrs. With HRP substrate added and color developed in the medium, the results were determined with microplate reader.
The cell surface expression of α5 subunit was presented as the ratio of the colorimetric reading under non-permeabilized conditions to those permeabilized conditions. Consistent with the previous report, etomidate increases α5GABAA receptor surface expression. This increase was blocked by the specific peptide, but not the scramble peptide (FIG. 6A).
For astrocyte culture, cortical astrocytes were isolated from embryonic day 18 (E18) mouse embryos. Cells were allowed to grow to confluence in MEM and 10% fetal bovine serum (FBS; Life Technologies, Grand Island, New York) for 14 d. Cells were then enzymatically dissociated with trypsin-EDTA (0.05%; Life Technologies, Grand Island, New York), and passaged three times to obtain a nearly pure astrocytic culture. Astrocytes were then plated at a density of 25,000 cells per dish. […]
Background: ELISA stands for enzyme-linked immunosorbent assay.

Test [2] has as its system GABAA receptor-mediated tonic current in hippocampal neurons. The test can be described thus: Whole-cell voltage-clamp recordings of tonic current in astrocyte-neuron co-cultures. Format: cell-based, mouse. The conditions noted are these: neurons grown in co-cultures.

Consider “NYFTKRGWAWDG (listed as Homo sapiens) [α5pΔC4]”, for which, in test [1], the “etomidate-induced increase in α5GABAA receptor surface expression” value (shortened to “etomidate-induced increase”) was “lost the inhibitory function”.

In the case of `FC(F)OC(Cl)C(F)(F)F` (stereo not shown) [isoflurane], the tonic current result in test [2] (ISO, 250 μM) is given as “persistent increase”.

With “KKAL (listed as Homo sapiens) [Peptide C4, N-terminal truncated peptide, positions 354-357]”, the “etomidate-induced increase” value in test [1] is listed as “did not”.

Take “AWDGKKAL (listed as Homo sapiens) [Peptide C8, N-terminal truncated peptide, positions 350-357]”: in test [1], the “etomidate-induced increase” value is listed as “prevented”.

With `CC(C)c1cccc(C(C)C)c1O` [propofol], the tonic current entry in test [2] (Prop, 3 μM) is recorded as “persistent increase”.

Turning to `Cc1ncc2n1-c1ccc(Cl)cc1C(c1ccccc1F)=NC2` [midazolam], in test [2] (MDZ, 200 nM), the tonic current result is on record as “persistent increase”.

For the molecule “DGKKAL (listed as Homo sapiens) [Peptide C6, N-terminal truncated peptide, positions 352-357]”, in test [1], the “etomidate-induced increase” value is recorded as “did not”.

`FCOC(C(F)(F)F)C(F)(F)F` [sevoflurane]: the tonic current entry in test [2] (SEVO, 266 μM) is recorded as “persistent increase”.

As for “KRGWAWDGKKAL (listed as Homo sapiens) [α5pΔN4]”, the “etomidate-induced increase” value in test [1] was “retains the inhibitory function”.

For “GWAWDGKKAL (listed as Homo sapiens) [Peptide C10, N-terminal truncated peptide, positions 348-357]”, in test [1], the “etomidate-induced increase” value was “prevented”.
